According to patent US8067582B2 (Bristol-Myers Squibb Company, priority 2007, dated 2011):

biological target: T1, androgen receptor (AR) (Homo sapiens, UniProt P10275); assay: MDA-MB-453 Androgen Receptor Transactivation Assay (PSA-Luc reporter, 3 nM DHT); type: cell-based; conditions: MDA-MB-453 cells, antagonism in presence of 3 nM DHT, 48 hour incubation
T1 sequence (P10275 1-920): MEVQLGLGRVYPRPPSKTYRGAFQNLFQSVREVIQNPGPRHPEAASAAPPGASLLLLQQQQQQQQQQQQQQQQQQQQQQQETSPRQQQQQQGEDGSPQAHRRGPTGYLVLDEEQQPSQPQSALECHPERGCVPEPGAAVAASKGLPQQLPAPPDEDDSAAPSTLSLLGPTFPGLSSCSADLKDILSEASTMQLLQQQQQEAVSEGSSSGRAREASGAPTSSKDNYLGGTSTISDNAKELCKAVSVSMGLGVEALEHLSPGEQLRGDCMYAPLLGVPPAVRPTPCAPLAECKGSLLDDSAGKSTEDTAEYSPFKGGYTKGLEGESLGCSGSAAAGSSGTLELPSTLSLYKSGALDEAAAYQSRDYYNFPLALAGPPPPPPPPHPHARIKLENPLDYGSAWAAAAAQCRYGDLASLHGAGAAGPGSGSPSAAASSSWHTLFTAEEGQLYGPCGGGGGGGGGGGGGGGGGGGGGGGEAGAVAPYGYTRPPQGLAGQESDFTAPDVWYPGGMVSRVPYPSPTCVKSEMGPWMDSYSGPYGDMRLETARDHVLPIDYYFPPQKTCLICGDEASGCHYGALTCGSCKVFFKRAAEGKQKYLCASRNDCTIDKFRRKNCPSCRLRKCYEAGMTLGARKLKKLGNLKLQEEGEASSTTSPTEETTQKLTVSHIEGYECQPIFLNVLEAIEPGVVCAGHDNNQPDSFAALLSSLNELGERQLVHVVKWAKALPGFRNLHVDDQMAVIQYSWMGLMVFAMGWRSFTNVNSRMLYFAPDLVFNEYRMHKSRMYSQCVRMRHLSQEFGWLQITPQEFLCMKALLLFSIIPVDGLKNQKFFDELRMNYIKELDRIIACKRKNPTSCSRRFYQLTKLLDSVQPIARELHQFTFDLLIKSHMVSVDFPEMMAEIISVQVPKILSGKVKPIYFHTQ
Description: Compounds can be tested in a cell based transactivation assay used to measure the antagonism of androgen receptor (AR) transcriptional activity. The transactivation assay provides a means of identifying antagonists that inhibit the effects of the native hormone dihydrotestosterone (DHT). […] The pGL3 PSA-Luc reporter plasmid is comprised of the cDNA for the firefly luciferase gene and the upstream promoter sequences containing the androgen response elements (AREs) of the prostate specific antigen (PSA). This plasmid functions as a reporter for the transcription-modulating activity of the AR. In order to detect antagonists, the transactivation assay is conducted in the presence of constant concentration of the natural AR hormone (DHT) to induce a defined reporter signal. Addition of increasing concentrations of the suspected antagonist will decrease the reporter signal (luciferase activity).
MDA-MB-453 and 22 RV1 cells were maintained in DMEM (Cellgro, Cat. #10-014-CM) or RPMI 1640 (Gibco Cat. #11875-085) respectively and supplemented with 10% FBS (Invitrogen/GIBCO Life Science). Cells were bulk transfected in flasks with 1.3 ug/ml pGL3 PSA-Luc plasmid by using the Lipofectamine 2000 Reagent (Invitrogen, Cat. #11668-019) and serum-free Opti-MEM I media (Invitrogen, Cat #31985-070) according to the manufacturer's optimized conditions. Transfection was conducted at 37° C. with 5% CO2 for 16-18 hours. Following transfection, cells are washed, treated with trypsin, counted, and seeded in a 96-well plate at 30,000 cells per well in DMEM containing 10% Charcoal/Dextran Treated Fetal Bovine Serum (Gibco Cat. #11054-020) for MDA-MB-453 cells or RPMI 1640 (Gibco Cat. #110835) containing 10% FBS (Invitrogen/GIBCO Life Science) for 22 RV1 cells.
Following transfection, cells were incubated in the absence (blank) or presence (control) of 3 nM DHT (Sigma, Cat. #A-8380) and in the presence or absence of the standard antiandrogen bicalutamide or test compounds ranging in concentrations from 10^−10 to 10^−5M. Duplicates were used for each sample. The compound dilutions were performed by the Tecan Genesis (Tecan, Triangle Park, N.C.). After a 48 hour incubation, luciferase activity was measured using the Steady-Glo Luciferase Assay System (Promega, Cat. #E2550) according to manufacturer's specifications and luminescence was measured on a Packard TopCount (PerkinElmer). For each luciferase sample reading, the percent control (in absence of compounds) was calculated as: % Control=100×[averagesample−averageblank]/[averagecontrol−averageblank] Data was plotted and the IC50 value was defined as the concentration of compound that inhibited 50% of the luciferase activity for the controls.
Compounds described herein were tested in the AR transactivation assay described immediately above, using MDA-MB-453 cells.

Compound | IC50
CNS(=O)(=O)N[C@H]1C[C@@]2(C)O[C@@]13CCO[C@H]1[C@@H]3[C@@H]2C(=O)N1c1ccc(C#N)c(Cl)c1 [Example 47, N-((1R,2S,4R,5S,8S,12R)-7-(3-Chloro-4-cyanophenyl)-4-methyl-6-oxo-9,13-dioxa-7-azatetracyclo[6.3.1.1^1,4.0^5,12]tridec-2-yl)-N′-methylsulfamide] | 1.61 µM
C[C@@]12C[C@H](N)[C@]3(CCO[C@H]4[C@@H]3[C@@H]1C(=O)N4c1ccc(C#N)c(Cl)c1)O2 [Example 45, 4-((1R,2S,4R,5S,8S,12R)-2-amino-4-methyl-6-oxo-9,13-dioxa-7-azatetracyclo[6.3.1.1^1,4.0^5,12]tridec-7-yl)-2-chlorobenzonitrile] | 12.8 µM
CC[C@]12C[C@@H](O)[C@@]3(CCO[C@@H]4[C@H]3[C@H]1C(=O)N4c1ccc(C#N)c(C(F)(F)F)c1)O2 (single isomer, unassigned) [Example 59] | ≥ 7.5 µM
C[C@@]12C[C@@](C)(O)[C@]3(CCO[C@H]4[C@@H]3[C@@H]1C(=O)N4c1ccc(C#N)c(C(F)(F)F)c1)O2 [Example 37, 4-((1R,2R,4R,5S,8S,12R)-2-hydroxy-2,4-dimethyl-6-oxo-9,13-dioxa-7-azatetracyclo[6.3.1.1^1,4.0^5,12]tridec-7-yl)-2-(trifluoromethyl)benzonitrile] | 1.16 µM
C[C@@]12C[C@H](O)[C@]3(CCO[C@H]4[C@@H]3[C@]1(CO)C(=O)N4c1ccc(C#N)c(C(F)(F)F)c1)O2 [Example 24, 4-((1R,2S,4R,5R,8S,12R)-2-hydroxy-5-(hydroxymethyl)-4-methyl-6-oxo-9,13-dioxa-7-azatetracyclo[6.3.1.1^1,4.0^5,12]tridec-7-yl)-2-(trifluoromethyl)benzonitrile] | 5.45 µM
C[C@@]12C[C@H](O)[C@]3(CCO[C@H]4[C@@H]3[C@]1(C(=O)OCc1ccccc1)C(=O)N4c1ccc(C#N)c(C(F)(F)F)c1)O2 [Example 23, Benzyl (1R,2S,4R,5R,8S,12R)-7-(4-cyano-3-(trifluoromethyl)phenyl)-2-hydroxy-4-methyl-6-oxo-9,13-dioxa-7-azatetracyclo[6.3.1.1^1,4.0^5,12]tridecane-5-carboxylate] | 1.2 µM
CC(=O)N[C@@H]1[C@@H](O)[C@]23CCO[C@@H]4[C@H]2[C@@H](C(=O)N4c2ccc(C#N)c(C(F)(F)F)c2)[C@@]1(C)O3 (stereo in doubt) [Example 254, N-((1S,2R,3R,4R,5R,8R,12S)-7-(4-cyano-3-(trifluoromethyl)phenyl)-2-hydroxy-4-methyl-6-oxo-9,13-dioxa-7-azatetracyclo[6.3.1.1^1,4.0^5,12]tridec-3-yl)acetamide] | 4.95 µM
N#Cc1ccc(N2C(=O)[C@@H]3[C@@H]4[C@H]2OCC[C@]42O[C@H]3C[C@H]2O)cc1C(F)(F)F (single isomer, unassigned) [Example 55] | 10.8 µM
C[C@]12CC[C@@]3(CCO[C@@H]4[C@H]3[C@H]1C(=O)N4c1ccc(C#N)c(C(F)(F)F)c1)O2 [Example 51, 4-((1S,4S,5R,8R,12S)-4-methyl-6-oxo-9,13-dioxa-7-azatetracyclo[6.3.1.1^1,4.0^5,12]tridec-7-yl)-2-(trifluoromethyl)benzonitrile] | 1.81 µM
C[C@@]12C[C@H](NC(=O)OCCO)[C@]3(CCO[C@H]4[C@@H]3[C@@H]1C(=O)N4c1ccc(C#N)c(C(F)(F)F)c1)O2 [Example 162, 2-Hydroxyethyl ((1R,2S,4R,5S,8S,12R)-7-(4-cyano-3-(trifluoromethyl)phenyl)-4-methyl-6-oxo-9,13-dioxa-7-azatetracyclo[6.3.1.1^1,4.0^5,12]tridec-2-yl)carbamate] | 1.96 µM
CCC(=O)N[C@H]1C[C@@]2(C)O[C@@]13CCO[C@H]1[C@@H]3[C@@H]2C(=O)N1c1ccc(C#N)c(Cl)c1 [Example 214, N-((1R,2S,4R,5S,8S,12R)-7-(3-chloro-4-cyanophenyl)-4-methyl-6-oxo-9,13-dioxa-7-azatetracyclo[6.3.1.1^1,4.0^5,12]tridec-2-yl)propanamide] | 5.65 µM
